Patent US8178087B2, “Process of production of bacteriophage compositions and methods in phage therapy field” (priority 2006, dated 2012)

Legend:
[1] = tested on: AS19 bacterial strain; assay: different antibiotic test disks, T4-type phages on AS19 bacterial strain; type: cell-based, E. coli; conditions: T4-like phages
[2] = tested on: uropathogenic Escherichia coli strain; assay: antibiotic sensitivity test disks on Petri plate inoculated with child's urine (phage plaques around disks); type: cell-based; conditions: plate inoculated with dilution of child's urine; strain infected by bacteriophages
[3] = tested on: non-infected E. coli MFP; assay: antibiotic sensitivity test disks on non-infected MFP strain; type: cell-based, Escherichia coli; conditions: FIG. 1
[4] = tested on: φmF-infected E. coli MFP; assay: φmF plaque size around antibiotic disks on MFP strain; type: cell-based, Escherichia coli
From the text: A culture of non-infected MFP strain has been grown overnight in LB liquid medium, and then a dilution of the culture either alone or mixed with φmF phage have been inoculated on a series of nutrient Petri plate where different antibiotic sensitivity test disks were placed on the surface.
The entire surface of the Petri plate was inoculated with a mixture of both the MFP bacterial host and with the phage φmF that could infect it (see FIG. 1, φmF-infected E. coli MFP).

[5] = tested on: Escherichia. coli bacterial strain AS19; assay: T4 plaque size with CTX disk on bacterial strain AS19; type: cell-based; design: key to the marks not given beside the values; conditions: bacterial strain AS19, bacteriophage T4, CTX test disk
[6] = tested on: Escherichia. coli bacterial strain P400; assay: T4 plaque size with CTX disk on bacterial strain P400; type: cell-based; conditions: bacterial strain P400, bacteriophage T4, CTX test disk
[7] = tested on: Escherichia. coli bacterial strain BE; assay: T4 plaque size with CTX disk on bacterial strain BE; type: cell-based; design: key to the marks not given beside the values; conditions: bacteriophage T4, CTX test disk
[8] = tested on: AS19 bacterial strain; assay: growth of AS19 bacterial strain in LB liquid medium with low dose CTX (OD600, CFU/ml); type: cell-based, E. coli; conditions: CTX 0.003 μg/ml
Procedure: Growth was measured either by OD600 (A) or CFU/ml (B). The times (T) is indicated in minutes after addition of CTX to the growth medium.
To examine the effect of low doses of the β-lactam antibiotic CTX on a culture of the AS19 bacterial strain, this bacterial strain was grown in LB liquid medium with CTX at a dosage level (0.003 μg/ml) that produces a substantial effect synergistic when infected with T4 phage.

[9] = tested on: AS19 bacterial strain; assay: morphology of T4 infected AS19 bacteria with or without CTX by optical microscopy; type: cell-based, E. coli; conditions: CTX 0.003 μg/ml, several hours after infection, FIG. 4
From the text: The morphology of the bacteria in culture has been observed by optical microscopy at different times after infection.

[10] = tested on: Escherichia. coli bacterial strain S/6; assay: T4 plaque size with CTX disk on bacterial strain S/6; design: key to the marks not given beside the values; conditions: bacterial strain S/6, bacteriophage T4, CTX test disk
[11] = tested on: Escherichia. coli bacterial strain C600; assay: T4 plaque size with CTX disk on bacterial strain C600; conditions: bacterial strain C600, bacteriophage T4, CTX test disk
[12] = tested on: Escherichia. coli bacterial strain MC1061; assay: T4 plaque size with CTX disk on bacterial strain MC1061; conditions: bacterial strain MC1061, bacteriophage T4, CTX test disk

Compound: CO[C@H]1/C=C/O[C@@]2(C)Oc3c(C)c(O)c4c(O)c(c(/C=N/N5CCN(C)CC5)c(O)c4c3C2=O)NC(=O)/C(C)=C\C=C\[C@H](C)[C@H](O)[C@@H](C)[C@@H](O)[C@@H](C)[C@H](OC(C)=O)[C@@H]1C [Rifampin]
- stimulation of T4 phage production (synergistic effect on phage T4 growth) [1]: failed to stimulate T4 phage production

Compound: Colistin
- stimulation of T4 phage production (synergistic effect on phage T4 growth) [1]: failed to stimulate T4 phage production

Compound: C[C@@H]1O[C@@H]1P(=O)(O)O [Fosfomycin]
- stimulation of T4 phage production (synergistic effect on phage T4 growth) [1]: failed to stimulate T4 phage production

Compound: COc1cc(Cc2cnc(N)nc2N)cc(OC)c1OC [Trimethoprim]
- stimulation of T4 phage production (synergistic effect on phage T4 growth) [1]: failed to stimulate T4 phage production

Compound: C[C@H]1[C@H](NC(=O)/C(=N\OC(C)(C)C(=O)O)c2csc(N)n2)C(=O)N1S(=O)(=O)O [ATM, aztreonam]
- size of phage plaques in the zone of non lethal concentrations of antibiotic that encircled antibiotic disks [2]: much larger
- sensitivity or resistance of the MFP bacterial strain to antibiotic (zone of growth inhibition around disks) [3]: sensitivity
- stimulation of phage φMFP growth by antibiotic disks ([4]; FIG. 1, disks marked with +): good stimulation
- size of φmF plaques in the zone of non lethal antibiotic concentration around disks ([4]; MFP host mixed with phage φmF, FIG. 1): significantly larger size

Compound: CC1(C)S[C@@H]2[C@H](NC(=O)[C@H](N)c3ccc(O)cc3)C(=O)N2[C@H]1C(=O)O [Amoxicillin]
- sensitivity or resistance of the MFP bacterial strain to antibiotic (zone of growth inhibition around disks) [3]: resistance

Compound: Gentamicin
- stimulation of T4 phage production (synergistic effect on phage T4 growth) [1]: failed to stimulate T4 phage production

Compound: CO/N=C(\C(=O)N[C@@H]1C(=O)N2C(C(=O)O)=C(COC(C)=O)CS[C@H]12)c1csc(N)n1 [CTX, Cefotaxime]
- synergy (size of phage plaques) with CTX (Cefotaxime) [5]: +++
- synergy (size of phage plaques) with CTX (Cefotaxime) [6]: +
- synergy (size of phage plaques) with CTX (Cefotaxime) [7]: +++
- cell viability as assayed by colony forming units ([8]; LB liquid medium): little effected
- cell division ([8]; LB liquid medium, FIGS. 3A and 3B): inhibited
- optical density of the culture treated with the drug ([8]; after the addition of the drug): continues to increase for at least two hours
- cell size of the T4 infected bacteria [9]: increases in volume considerably producing long fat filaments
- synergy (size of phage plaques) with CTX (Cefotaxime) [10]: ++
- synergy (size of phage plaques) with CTX (Cefotaxime) [11]: +
- synergy (size of phage plaques) with CTX (Cefotaxime) [12]: +

Compound: O=C(N[C@H](CO)[C@H](O)c1ccc([N+](=O)[O-])cc1)C(Cl)Cl [Choramphenicol]
- stimulation of T4 phage production (synergistic effect on phage T4 growth) [1]: failed to stimulate T4 phage production

Compound: CCn1cc(C(=O)O)c(=O)c2ccc(C)nc21 [Nalidix Acid, Nalidixic acid]
- stimulation of T4 phage production (synergistic effect on phage T4 growth) [1]: causes a synergistic effect

Compound: NCC[C@H](O)C(=O)N[C@@H]1C[C@H](N)[C@@H](O[C@H]2O[C@H](CN)[C@@H](O)[C@H](O)[C@H]2O)[C@H](O)[C@H]1O[C@H]1O[C@H](CO)[C@@H](O)[C@H](N)[C@H]1O [Amikacin]
- stimulation of T4 phage production (synergistic effect on phage T4 growth) [1]: failed to stimulate T4 phage production
